Data reported in patent US11203594B2, “Anti-proliferative agents for treating PAH” (Pfizer Inc., priority 2019, dated 2021).
pKi: −log10 of the molar value.

What was measured:
CDK4/Cyclin D1 = CDK4/Cyclin D1 (Homo sapiens (Human), UniProt P11802); assay: CDK4/Cyclin D1 CHEF assay (Chelation-Enhanced Fluorescence), Ki by Morrison equation; format: biochemical; conditions: geometric mean; tested in CHEF Assay; read-out: CDK4/Cyclin D1 GMean Ki
Source text: (§1) In Vitro Purified Enzyme Assays to Determine Potency for CDKs
(§2) CDK4/Cyclin D1 and CDK6/Cylcin D3 CHEF Assay
(§3) The Chelation-Enhanced Fluorescence (CHEF) monitors the phosphorylation state in real time where the level of fluorescence is directly proportional to the amount of phosphorylated substrate. CHEF exploits a synthetic α-amino acid with a side chain bearing an 8-hydroxyquinoline derivative (sulfonamido-oxine, Sox) which, upon coordination to Mg(II), relays information on the phosphorylation state of a proximal serine, threonine or tyrosine residue in peptide-based kinase substrates. Phosphorylation of a specific peptide (Catalog # AQT0258) from AssayQuant Technologies results in an increase in fluorescence at the excitation and emission wavelengths of 360 nm Ex/485 nm Em.
(§4) Examples along with DMSO (negative) and Palbociclib (positive) controls were added to 384-well plates at 100-fold their final concentrations followed by the addition of 10 nM CDK4/Cyclin D1 (LJIC-2007F1) or 10 nM CDK6/Cyclin D3 (LJIC-2009H2) for a 20 minute pre-incubation in assay buffer containing 40 mM HEPES, 1 mM Dithiothreito (DTT, 10 mM MgCl2, 1% Glycerol, 0.1% BSA. Enzyme reactions were initiated by the addition of AssayQuant Technologies peptide and ATP substrates (10 μM CHEF peptide (Catalog # AQT0258), 2 mM ATP) and allowed to proceed for 2 hours followed by fluorescence read of the reaction. Ki determinations were made from a plot of the fractional velocity as a function of inhibitor concentration fit to the Morrison equation with the enzyme concentration as a variable.
(§5) For all the CDK4 and CDK6 assays the Ki constant for compounds were calculated for each enzyme using the Morrison equation. Fractional activity was measured at different compound concentrations, [I] and the data fit to the Morrison equation where [E] is the enzyme concentration, [S] is the ATP concentration, and Kn^App is the apparent Km for ATP for each enzyme under each assay format. With the Ki calculations dependent on the assay conditions for each assay format the resulting Ki becomes assay independent with a strong one to one correlation of Ki values for compounds tested in both assay formats.
(§6) In Table 2, assay data are presented to two (2) significant figures as the geometric mean (Ki) based on the number of replicates listed (Number). A cell having NA means there was no data for that Example in the indicated assay.

CDK6/Cyclin D3 = CDK6/Cyclin D3 (Homo sapiens (Human), UniProt Q00534); assay: CDK6/Cyclin D3 CHEF assay (Chelation-Enhanced Fluorescence), Ki by Morrison equation; format: biochemical; conditions: geometric mean; tested in CHEF Assay; read-out: CDK6/Cyclin D3: GMean Ki
CDK6/Cyclin D3, sequence (Q00534 whole entry): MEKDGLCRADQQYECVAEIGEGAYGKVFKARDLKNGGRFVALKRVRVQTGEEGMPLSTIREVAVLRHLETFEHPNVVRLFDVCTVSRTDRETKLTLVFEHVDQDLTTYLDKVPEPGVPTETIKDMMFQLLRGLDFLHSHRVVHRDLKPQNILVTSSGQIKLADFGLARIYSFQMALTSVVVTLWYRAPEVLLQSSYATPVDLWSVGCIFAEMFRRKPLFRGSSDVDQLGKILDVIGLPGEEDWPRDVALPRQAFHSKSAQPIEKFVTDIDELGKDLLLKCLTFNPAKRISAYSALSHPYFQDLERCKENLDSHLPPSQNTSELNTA
CDK6/Cyclin D3, sequence (P30281 whole entry partner): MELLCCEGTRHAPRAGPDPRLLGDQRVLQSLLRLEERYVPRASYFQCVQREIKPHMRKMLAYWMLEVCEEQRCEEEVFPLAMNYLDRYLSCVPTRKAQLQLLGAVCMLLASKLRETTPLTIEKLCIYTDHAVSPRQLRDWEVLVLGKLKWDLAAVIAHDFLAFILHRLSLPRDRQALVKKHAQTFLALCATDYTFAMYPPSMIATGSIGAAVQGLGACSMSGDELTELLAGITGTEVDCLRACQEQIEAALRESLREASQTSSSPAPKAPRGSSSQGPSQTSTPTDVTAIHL
Source text: as §1, §2, §3, §4, §5, §6

CDK4/Cyclin D1, sequence (P11802 whole entry): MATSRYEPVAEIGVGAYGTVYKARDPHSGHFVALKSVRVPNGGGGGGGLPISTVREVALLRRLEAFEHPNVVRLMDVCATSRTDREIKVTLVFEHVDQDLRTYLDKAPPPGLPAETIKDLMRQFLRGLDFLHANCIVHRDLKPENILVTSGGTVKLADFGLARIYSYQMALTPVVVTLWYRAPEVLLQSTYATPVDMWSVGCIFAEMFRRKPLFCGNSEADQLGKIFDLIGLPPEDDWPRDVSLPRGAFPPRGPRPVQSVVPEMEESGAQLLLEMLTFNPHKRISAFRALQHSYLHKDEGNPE
CDK4/Cyclin D1, sequence (P24385 whole entry partner): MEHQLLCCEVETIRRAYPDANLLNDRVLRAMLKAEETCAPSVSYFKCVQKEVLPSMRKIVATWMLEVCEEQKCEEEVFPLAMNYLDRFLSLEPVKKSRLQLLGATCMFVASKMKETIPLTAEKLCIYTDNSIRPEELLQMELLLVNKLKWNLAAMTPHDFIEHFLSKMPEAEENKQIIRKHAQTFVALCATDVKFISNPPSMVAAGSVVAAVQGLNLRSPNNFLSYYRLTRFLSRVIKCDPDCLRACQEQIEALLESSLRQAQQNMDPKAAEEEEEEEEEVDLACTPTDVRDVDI

Row | SMILES | pKi (CDK4/Cyclin D1) | pKi (CDK6/Cyclin D3)
1 | CC(=O)c1c(C)c2cnc(N[C@@H]3CCOC(C)(C)[C@H]3O)nc2n(C2CCCC2)c1=O (mixture of isomers) [Example 8, 6-Acetyl-8-cyclopentyl-2-{[(3S,4R)-3-hydroxy-2,2-dimethyltetrahydro-2H-pyran-4-yl]amino}-5-methylpyrido[2,3-d]pyrimidin-7(8H)-one and 6-Acetyl-8-cyclopentyl-2-{[(3R,4S)-3-hydroxy-2,2-dimethyltetrahydro-2H-pyran-4-yl]amino}-5-methylpyrido[2,3-d]pyrimidin-7(8H)-one] | < 5.92 | < 6.25
2 | CC(=O)c1c(C)c2cnc(N[C@@H]3CCOC[C@H]3O)nc2n(C2CC3(CNC3)C2)c1=O [Example 3, 6-Acetyl-8-(2-azaspiro[3.3]heptan-6-yl)-2-{[(3S,4R)-3-hydroxytetrahydro-2H-pyran-4-yl]amino}-5-methylpyrido[2,3-d]pyrimidin-7(8H)-one] | 8.96 | 8.68
3 | CC(=O)c1c(C)c2cnc(N[C@@H]3CCOC[C@H]3O)nc2n([C@H]2CCNC2)c1=O [Example 18, 6-Acetyl-2-{[(3S,4R)-3-hydroxytetrahydro-2H-pyran-4-yl]amino}-5-methyl-8-[(3S)-pyrrolidin-3-yl]pyrido[2,3-d]pyrimidin-7(8H)-one] | 8.02 | 7.47
4 | CC(=O)c1c(C)c2cnc(N[C@@H]3CCOC[C@H]3O)nc2n(C2CC3(C2)CN(CC(F)F)C3)c1=O [Example 29, 6-acetyl-8-[2-(2,2-difluoroethyl)-2-azaspiro[3.3]heptan-6-yl]-2-{[(3S,4R)-3-hydroxytetrahydro-2H-pyran-4-yl]amino}-5-methylpyrido[2,3-d]pyrimidin-7(8H)-one] | 8.72 | 8.31
5 | CC(=O)c1c(C)c2cnc(N[C@@H]3CCOC[C@H]3O)nc2n(C2CCNCC2)c1=O [Example 32] | 7.80 | 7.57
6 | CC(=O)c1c(C)c2cnc(N[C@@H]3CCOC(C)(C)[C@H]3O)nc2n(C2CCCC2)c1=O (mixture of isomers) [Example 9, 6-Acetyl-8-cyclopentyl-2-{[(3S,4R)-3-hydroxy-2,2-dimethyltetrahydro-2H-pyran-4-yl]amino}-5-methylpyrido[2,3-d]pyrimidin-7(8H)-one and 6-Acetyl-8-cyclopentyl-2-{[(3R,4S)-3-hydroxy-2,2-dimethyltetrahydro-2H-pyran-4-yl]amino}-5-methylpyrido[2,3-d]pyrimidin-7(8H)-one] | 8.57 | 8.17
7 | CC(=O)c1c(C)c2cnc(N[C@@H]3CCOC[C@H]3O)nc2n([C@@H]2CCC[C@]2(C)F)c1=O (mixture of isomers) [Example 16, 6-Acetyl-8-[(1R,2S)-2-fluoro-2-methylcyclopentyl]-2-{[(3S,4R)-3-hydroxytetrahydro-2H-pyran-4-yl]amino}-5-methylpyrido[2,3-d]pyrimidin-7(8H)-one and 6-Acetyl-8-[(1S,2R)-2-fluoro-2-methylcyclopentyl]-2-{[(3S,4R)-3-hydroxytetrahydro-2H-pyran-4-yl]amino}-5-methylpyrido[2,3-d]pyrimidin-7(8H)-one] | 8.59 | 8.30
8 | CC(=O)c1c(C)c2cnc(N[C@@H]3CCOC[C@H]3O)cc2n(C2CCC(O)C2)c1=O (single isomer, unassigned) [Example 15] | 8.42 | 8.11
